Data from ChEMBL document CHEMBL5352456, “Isocyanides in med chem: A scaffold hopping approach for the identification of novel 4-isocyanophenylamides as potent antibacterial agents against methicillin-resistant Staphylococcusaureus” (Eur J Med Chem, 2023).

What was measured:
Assay type in all cases: functional
Conditions in all cases: time 16-20 hrs
[1] = system: Staphylococcus epidermidis; assay: Antibacterial activity against Staphylococcus epidermidis ATCC 12228 assessed as reduction in microbial growth measured for 16 to 20 hrs by microdilution assay
Staphylococcus aureus [2] = assay: Antibacterial activity against methicillin-resistant Staphylococcus aureus ATCC 33592 assessed as reduction in microbial growth measured for 16 to 20 hrs by microdilution assay
[3] = system: Staphylococcus epidermidis; assay: Antibacterial activity against Staphylococcus epidermidis ATCC 35984 assessed as reduction in microbial growth measured for 16 to 20 hrs by microdilution assay
Staphylococcus aureus [4] = assay: Antibacterial activity against Staphylococcus aureus ATCC 6538 assessed as reduction in microbial growth measured for 16 to 20 hrs by microdilution assay
Pseudomonas aeruginosa = assay: Antibacterial activity against Pseudomonas aeruginosa ATCC 10145 assessed as inhibition of bacterial growth measured for 16 to 20 hrs by microdilution assay
Escherichia coli = assay: Antibacterial activity against Escherichia coli ATCC 25922 assessed as inhibition of bacterial growth measured for 16 to 20 hrs by microdilution assay
Klebsiella pneumoniae = assay: Antibacterial activity against Klebsiella pneumoniae ATCC 700603 assessed as inhibition of bacterial growth measured for 16 to 20 hrs by microdilution assay
Staphylococcus aureus [5] = assay: Antibacterial activity against Staphylococcus aureus ATCC 25923 assessed as reduction in microbial growth measured for 16 to 20 hrs by microdilution assay
Staphylococcus aureus [6] = assay: Antibacterial activity against Staphylococcus aureus ATCC 29213 assessed as reduction in microbial growth measured for 16 to 20 hrs by microdilution assay
[7] = system: Staphylococcus epidermidis; assay: Antibacterial activity against Staphylococcus epidermidis ATCC 49134 assessed as reduction in microbial growth measured for 16 to 20 hrs by microdilution assay
Staphylococcus aureus [8] = assay: Antibacterial activity against methicillin-resistant Staphylococcus aureus ATCC 43300 assessed as reduction in microbial growth measured for 16 to 20 hrs by microdilution assay

Work on `[C-]#[N+]c1ccc(NC(=O)CCc2ccc([N+](=O)[O-])cc2)cc1` yielded an MIC [1] of 2 µM, an MIC (Staphylococcus aureus [2]) greater than 8 µM and an MIC [3] of 1 µM. For the same compound, the MIC (Staphylococcus aureus [4]) was greater than 8 µM, the MIC (Pseudomonas aeruginosa) was no less than 64 µM and the MIC (Escherichia coli) was no less than 64 µM. For the same compound, the MIC (Klebsiella pneumoniae) was no less than 64 µM, the MIC (Staphylococcus aureus [5]) was 4 µM and the MIC (Staphylococcus aureus [6]) was greater than 8 µM. The MIC [7] was 2 µM and the MIC (Staphylococcus aureus [8]) was 8 µM.
In the case of `[C-]#[N+]c1ccc(NC(=O)CCC2CCCC2)cc1`, the MIC [1] is reported as 1 µM, the MIC (Staphylococcus aureus [2]) is reported as 8 µM and the MIC [3] is reported as 1 µM. The MIC (Staphylococcus aureus [4]) was 8 µM, the MIC (Pseudomonas aeruginosa) was no less than 64 µM and the MIC (Escherichia coli) was no less than 64 µM. The MIC (Klebsiella pneumoniae) was no less than 64 µM, the MIC (Staphylococcus aureus [5]) was 4 µM and the MIC (Staphylococcus aureus [6]) was 8 µM. The MIC [7] was 2 µM and the MIC (Staphylococcus aureus [8]) was 8 µM.
In the case of `[C-]#[N+]c1ccc(NC(=O)CCCCC)cc1`, the MIC [1] is reported as 1 µM, the MIC (Staphylococcus aureus [2]) is reported as greater than 8 µM and the MIC [3] is reported as 1 µM. It also gave an MIC (Staphylococcus aureus [4]) greater than 8 µM, an MIC (Pseudomonas aeruginosa) of no less than 64 µM and an MIC (Escherichia coli) of no less than 64 µM. It also gave an MIC (Klebsiella pneumoniae) of no less than 64 µM, an MIC (Staphylococcus aureus [5]) of 8 µM and an MIC (Staphylococcus aureus [6]) greater than 8 µM. The MIC [7] was 1 µM and the MIC (Staphylococcus aureus [8]) was greater than 8 µM.
Compound `[C-]#[N+]c1ccc(NC(=O)Cc2cccc(C#N)c2)cc1` has an MIC [1] of 2 µM, an MIC (Staphylococcus aureus [2]) of 8 µM and an MIC [3] of 2 µM. For the same compound, the MIC (Staphylococcus aureus [4]) was 8 µM, the MIC (Pseudomonas aeruginosa) was no less than 64 µM and the MIC (Escherichia coli) was no less than 64 µM. The MIC (Klebsiella pneumoniae) was no less than 64 µM, the MIC (Staphylococcus aureus [5]) was 4 µM and the MIC (Staphylococcus aureus [6]) was 8 µM. For the same compound, the MIC [7] was 2 µM and the MIC (Staphylococcus aureus [8]) was 8 µM.
`[C-]#[N+]c1ccc(NC(=O)Cc2cccc([N+](=O)[O-])c2)cc1` was tested, and the MIC [1] was 4 µM, the MIC (Staphylococcus aureus [2]) was 4 µM and the MIC [3] was 4 µM. It also gave an MIC (Staphylococcus aureus [4]) of 8 µM, an MIC (Pseudomonas aeruginosa) of no less than 64 µM and an MIC (Escherichia coli) of no less than 64 µM. The MIC (Klebsiella pneumoniae) was no less than 64 µM, the MIC (Staphylococcus aureus [5]) was 4 µM and the MIC (Staphylococcus aureus [6]) was 8 µM. The MIC [7] was 2 µM and the MIC (Staphylococcus aureus [8]) was 4 µM.
In the case of `[C-]#[N+]c1ccc(NC(=O)Cc2ccc([N+](=O)[O-])cc2)cc1`, the MIC [1] is reported as 1 µM, the MIC (Staphylococcus aureus [2]) is reported as 8 µM and the MIC [3] is reported as 0.5 µM. It also gave an MIC (Staphylococcus aureus [4]) of 8 µM, an MIC (Pseudomonas aeruginosa) of no less than 64 µM and an MIC (Escherichia coli) of no less than 64 µM. It also gave an MIC (Klebsiella pneumoniae) of no less than 64 µM, an MIC (Staphylococcus aureus [5]) of 2 µM and an MIC (Staphylococcus aureus [6]) of 8 µM. The MIC [7] was 0.5 µM and the MIC (Staphylococcus aureus [8]) was 4 µM.
In the case of `[C-]#[N+]c1ccc(NC(=O)Cc2cccc(OC)c2)cc1`, the MIC [1] is reported as 2 µM, the MIC (Staphylococcus aureus [2]) is reported as 8 µM and the MIC [3] is reported as 2 µM. The MIC (Staphylococcus aureus [4]) was 8 µM, the MIC (Pseudomonas aeruginosa) was no less than 64 µM and the MIC (Escherichia coli) was no less than 64 µM. The MIC (Klebsiella pneumoniae) was no less than 64 µM, the MIC (Staphylococcus aureus [5]) was 4 µM and the MIC (Staphylococcus aureus [6]) was 8 µM. It also gave an MIC [7] of 2 µM and an MIC (Staphylococcus aureus [8]) of 8 µM.
In the case of `CN(C)[C@@H]1C(O)=C(C(N)=O)C(=O)[C@@]2(O)C(O)=C3C(=O)c4c(O)cccc4[C@@](C)(O)[C@H]3C[C@@H]12` [TETRACYCLINE], the MIC [1] is reported as greater than 4.52 µM, the MIC (Staphylococcus aureus [2]) is reported as greater than 4.52 µM and the MIC [3] is reported as 4.52 µM. The MIC (Staphylococcus aureus [4]) was 1.13 µM, the MIC (Staphylococcus aureus [5]) was 1.13 µM and the MIC (Staphylococcus aureus [6]) was 1.13 µM. For the same compound, the MIC [7] was 0.27 µM and the MIC (Staphylococcus aureus [8]) was 1.13 µM.
`[C-]#[N+]c1ccc(NC(=O)Cc2ccc3c(c2)OCO3)cc1` showed an MIC [1] of 1 µM, an MIC (Staphylococcus aureus [2]) of 8 µM and an MIC [3] of 1 µM. It also gave an MIC (Staphylococcus aureus [4]) of 8 µM, an MIC (Pseudomonas aeruginosa) of no less than 64 µM and an MIC (Escherichia coli) of no less than 64 µM. The MIC (Klebsiella pneumoniae) was no less than 64 µM, the MIC (Staphylococcus aureus [5]) was 4 µM and the MIC (Staphylococcus aureus [6]) was 8 µM. It also gave an MIC [7] of 1 µM and an MIC (Staphylococcus aureus [8]) of 8 µM.
With `[C-]#[N+]c1ccc(NC(=O)CCCCCCCC)cc1` the MIC [1] was 1 µM, the MIC (Staphylococcus aureus [2]) was 8 µM and the MIC [3] was 0.5 µM. It also gave an MIC (Staphylococcus aureus [4]) of 8 µM, an MIC (Pseudomonas aeruginosa) of no less than 64 µM and an MIC (Escherichia coli) of no less than 64 µM. For the same compound, the MIC (Klebsiella pneumoniae) was no less than 64 µM, the MIC (Staphylococcus aureus [5]) was 2 µM and the MIC (Staphylococcus aureus [6]) was 8 µM. It also gave an MIC [7] of 0.5 µM and an MIC (Staphylococcus aureus [8]) of 4 µM.
For `[C-]#[N+]c1ccc(NC(=O)c2ccc(C(=O)OC)cc2)cc1`, the MIC (Staphylococcus aureus [4]) was greater than 8 µM, the MIC (Pseudomonas aeruginosa) was no less than 64 µM and the MIC (Escherichia coli) was no less than 64 µM. The MIC (Klebsiella pneumoniae) was no less than 64 µM, the MIC (Staphylococcus aureus [5]) was greater than 8 µM and the MIC (Staphylococcus aureus [6]) was greater than 8 µM.
In the case of `[C-]#[N+]c1ccc(NC(=O)Cc2ccccc2Cl)cc1`, the MIC (Staphylococcus aureus [4]) is reported as greater than 8 µM, the MIC (Pseudomonas aeruginosa) is reported as no less than 64 µM and the MIC (Escherichia coli) is reported as no less than 64 µM. For the same compound, the MIC (Klebsiella pneumoniae) was no less than 64 µM, the MIC (Staphylococcus aureus [5]) was greater than 8 µM and the MIC (Staphylococcus aureus [6]) was greater than 8 µM.
For `N#Cc1ccc(NC(=O)Cc2ccccc2)cc1`, the MIC (Staphylococcus aureus [4]) was greater than 8 µM, the MIC (Pseudomonas aeruginosa) was no less than 64 µM and the MIC (Escherichia coli) was no less than 64 µM. For the same compound, the MIC (Klebsiella pneumoniae) was no less than 64 µM, the MIC (Staphylococcus aureus [5]) was greater than 8 µM and the MIC (Staphylococcus aureus [6]) was greater than 8 µM.
